Measured values from article PMC6435784, “Gut Microbiota-Based Pharmacokinetics and the Antidepressant Mechanism of Paeoniflorin” (Frontiers in Pharmacology, 2019).
Where two headings read alike, the source gives them in different places.

Key:
depressed rats = assay: Chronic unpredictable stress depression model, sucrose preference test; type: in vivo, rat; details: after 2 weeks of drug treatment, compared with model group, n = 8
Protocol: Forty rats were randomly divided into the following groups (n = 8): the normal control group, the model control group, the fluoxetine group (10 mg/kg), the paeoniflorin low-dose group (10 mg/kg), and the paeoniflorin high-dose group (20 mg/kg). Except for the blank control group, the groups were randomly exposed to two stressors, including behavioral constraints, ice water swimming, electric shock, cold stimulation, clip tail, wet bedding, light/dark reversed, shaking, foods and water deprivation, continuously for 8 weeks to establish a chronic unpredictable stress model. The sucrose preference test was performed at 0 and 14 days after administration.

[1] = Pharmacokinetics of paeoniflorin in normal SD rats (plasma, LC-MS/MS); type: in vivo, rat; details: for MRT last: read-out: MRT (0-t); for MRT inf: read-out: MRT (0-∞); for half-life: read-out: t1/2z (converted)
Protocol: Chromatography separation was performed using an XSS T3 column (3.5 μm, 2.1 mm × 100 mm, Waters, Milford, MA, United States) with the column temperature maintained at 40°C at a flow rate of 0.4 mL/min. […] The gradient was as follows: 25% eluent B for 2 min; 25–85% B from 2 to 4 min; 85–25% B from 4 to 5 min and held at 25% from 5 to 7 min. The autosampler temperature was set to 4°C. Mass spectrometry was carried out using multiple reaction monitoring mode (MRM). […] The nebulizing gas flow rate was 2.8 L/min, the drying gas flow rate was 10 L/min, and the heating gas flow rate was 10 L/min. […] Plasma samples were immediately stored at 4°C until analysis. The method validation assays were carried out in terms of specificity, linearity, sensitivity, accuracy, precisions, recovery, matrix effect and stability. […] Statistical analyses were conducted using two-way ANOVA and Student’s t-test with GraphPad Prism Version 5 (GraphPad Software, La Jolla, CA, United States). The data are expressed as the means ± standard deviation. […] DAS 3.0 was used to calculate the plasma pharmacokinetic parameters.

[2] = Pharmacokinetics of paeoniflorin in pseudo-germ-free (PGF) rats; type: in vivo; details: SD, rat, oral paeoniflorin 20 mg/kg, plasma analyte = labelled substance; for AUC(0-t) / Cmax: plasma, po, 20 mg/kg
Protocol: Chromatography separation was performed using an XSS T3 column (3.5 μm, 2.1 mm × 100 mm, Waters, Milford, MA, United States) with the column temperature maintained at 40°C at a flow rate of 0.4 mL/min. […] The gradient was as follows: 25% eluent B for 2 min; 25–85% B from 2 to 4 min; 85–25% B from 4 to 5 min and held at 25% from 5 to 7 min. The autosampler temperature was set to 4°C. Mass spectrometry was carried out using multiple reaction monitoring mode (MRM). […] The nebulizing gas flow rate was 2.8 L/min, the drying gas flow rate was 10 L/min, and the heating gas flow rate was 10 L/min. […] The remaining fourteen SD rats were orally administered saline equivalently. Two days after administration, pharmacokinetic experiments were performed. […] Plasma samples were immediately stored at 4°C until analysis. Statistical analyses were conducted using two-way ANOVA and Student’s t-test with GraphPad Prism Version 5 (GraphPad Software, La Jolla, CA, United States). The data are expressed as the means ± standard deviation. […] DAS 3.0 was used to calculate the plasma pharmacokinetic parameters.

[3] = Excretion of paeoniflorin in rats (urine, feces, bile); type: in vivo, rat; details: for Excretion rate of paeoniflorin (%), Urine (%), cumulative / Excretion rate of paeoniflorin (%), Feces (%), cumulative: total excretion, oral 20 mg/kg
Protocol: Then, urine samples and feces samples were collected at 0, 6, 12, 24, 48, 72, and 96 h.

[4] = Brain distribution of paeoniflorin and benzoic acid in rats; type: in vivo, rat; details: at 2 h after oral administration of paeoniflorin 20 mg/kg
[5] = Metabolism of paeoniflorin in liver microsome in vitro; type: in vitro ADME; details: 5 μM paeoniflorin, 1 mg/mL protein, NADPH, 37°C, incubation 2 h
Protocol: Samples were incubated at 37°C in a shaker. The incubation mixtures were 0.2 mL of the final volume and the protein concentration was 1 mg/mL. […] The reaction was initiated by the addition of NADPH after a 3 min preincubation at 37°C. The above reactions were terminated by the addition of 0.4 mL acetonitrile (1:2). Proteins were precipitated by centrifugation at 10,625 g for 5 min, and 10 μL supernatant was injected into the UPLC system for quantification.

[6] = Excretion of paeoniflorin in rats (urine, feces, bile); type: in vivo, rat; details: normal rats, paeoniflorin 20 mg/kg, excreted form = labelled substance, n = 6
[7] = SD, rat, plasma, intravenous 2 mg/kg, normal rats, n = 5
[8] = SD, rat, plasma, normal rats, oral 20 mg/kg, n = 6
[9] = SD, rat, normal rats, oral paeoniflorin 20 mg/kg, plasma analyte = labelled substance, n = 6
[10] = normal rats, oral 20 mg/kg, n = 6
[11] = normal rats, oral paeoniflorin 20 mg/kg, plasma analyte = labelled substance, n = 6
[12] = PGF rats (antibiotic pretreated)
[13] = normal rats, oral paeoniflorin 20 mg/kg, excreted form = labelled substance, n = 6

C[C@@]12C[C@@]3(O)O[C@@H](O1)[C@]1(COC(=O)c4ccccc4)[C@H]3C[C@@]12O[C@@H]1O[C@H](CO)[C@@H](O)[C@H](O)[C@H]1O [Paeoniflorin]
sucrose preference value (depressed rats; 10 mg/kg): higher than that in the model group
sucrose preference value (depressed rats; 20 mg/kg): higher than that in the model group
AUC(0-t) ([1]; SD, rat, plasma, iv, 2 mg/kg, intravenous 2 mg/kg, normal rats, n = 5, read-out: AUC (0-t)): 1060 ± 326 ng·h/mL
bioavailability ([1]; SD, rat, plasma, oral, rats, oral 20 mg/kg vs intravenous 2 mg/kg, F = AUCT·Div/AUCiv·DT × 100%, read-out: absolute (oral) bioavailability): 2.32%
AUC(0-t) ([1]; SD, rat, plasma, po, 20 mg/kg, normal rats, oral paeoniflorin 20 mg/kg, plasma analyte = labelled substance, Figures 2C, 3B, 3C, read-out: AUC(0-t) (unit inferred)): 245 ng·h/mL
Cmax ([1]; SD, rat, plasma, po, 20 mg/kg, normal rats, oral paeoniflorin 20 mg/kg, plasma analyte = labelled substance, Figures 2C, 3B, 3C, read-out: Cmax (unit inferred)): 119 ng/mL
AUC(0-t) ([1]; SD, rat, plasma, po, 20 mg/kg, normal rats, oral paeoniflorin 20 mg/kg, plasma analyte = labelled substance, n = 6, read-out: AUC (0-t)): 245 ± 72.8 ng·h/mL
Cmax ([1]; SD, rat, plasma, po, 20 mg/kg, normal rats, oral paeoniflorin 20 mg/kg, plasma analyte = labelled substance, n = 6, read-out: Cmax): 119 ± 54.3 ng/mL
AUC(0-inf) [1, 7]: 1070 ± 325 ng·h/mL
clearance ([1]; SD, rat, plasma, intravenous 2 mg/kg, normal rats, n = 5, read-out: CLz (converted)): 33.3 mL/min/kg
MRT last [1, 7]: 0.903 ± 0.122 h
MRT inf [1, 7]: 0.981 ± 0.07 h
Vd ([1]; SD, rat, plasma, intravenous 2 mg/kg, normal rats, n = 5, read-out: Vz): 6.09 ± 3.11 L/kg
half-life [1, 7]: 2.06 ± 0.771 h
MRT last [1, 8]: 2 ± 0.353 h
MRT inf [1, 8]: 2.04 ± 0.368 h
AUC(0-inf) [1, 9]: 246 ± 72.8 ng·h/mL
Tmax [1, 9]: 0.458 ± 0.195 h
half-life [1, 9]: 1.3 ± 0.474 h
CLz [1, 10]: 1473 ± 483.58 mL/min/kg
Vz [1, 10]: 161.261 ± 82.928 L/kg
AUC(0-t) [1, 11]: 245.29 ± 72.811 ng·h/mL
Cmax [1, 11]: 119.36 ± 54.3 ng/mL
absolute (oral) bioavailability ([1]; rats, oral 20 mg/kg vs intravenous 2 mg/kg, F = AUCT·Div/AUCiv·DT × 100%): 2.3%
AUC(0-t) ([2]; PGF rats (antibiotic pretreated), read-out: AUC (0-t)): 296 ± 100 ng·h/mL
Cmax ([2]; PGF rats (antibiotic pretreated), read-out: Cmax): 134 ± 48.5 ng/mL
AUC(0-t) ([2]; PGF rats, Figures 3B, 3C, read-out: AUC(0-t) (unit inferred)): 296 ng·h/mL
Cmax ([2]; PGF rats, Figures 3B, 3C, read-out: Cmax (unit inferred)): 134 ng/mL
AUC(0-inf) [2, 12]: 312 ± 123 ng·h/mL
Tmax [2, 12]: 0.388 ± 0.136 h
half-life ([2]; PGF rats (antibiotic pretreated), read-out: t1/2z (converted)): 2.58 ± 1.61 h
96-h cumulative excretion in feces [3, 13]: 0.016%
96-h cumulative excretion in urine [3, 13]: 1.66%
Excretion rate of paeoniflorin (%), Urine (%), cumulative ([3]; time row 0–6 h): 0.6821 ± 0.3209%
Excretion rate of paeoniflorin (%), Feces (%), cumulative ([3]; time row 6–12 h): 0.0890 ± 0.0568%
Excretion rate of paeoniflorin (%), Urine (%), cumulative ([3]; time row 6–12 h): 1.2565 ± 0.9639%
Excretion rate of paeoniflorin (%), Feces (%), cumulative ([3]; time row 12–24 h): 0.1247 ± 0.0763%
Excretion rate of paeoniflorin (%), Urine (%), cumulative ([3]; time row 12–24 h): 11.4988 ± 6.4969%
Excretion rate of paeoniflorin (%), Feces (%), cumulative ([3]; time row 24–48 h): 0.1479 ± 0.0932%
Excretion rate of paeoniflorin (%), Urine (%), cumulative ([3]; time row 24–48 h): 28.6890 ± 13.81%
Excretion rate of paeoniflorin (%), Feces (%), cumulative ([3]; time row 48–72 h): 0.1630 ± 0.0948%
Excretion rate of paeoniflorin (%), Urine (%), cumulative ([3]; time row 48–72 h): 42.8196 ± 19.2297%
Excretion rate of paeoniflorin (%), Feces (%), cumulative ([3]; time row 72–96 h): 0.1805 ± 0.1055%
Excretion rate of paeoniflorin (%), Urine (%), cumulative ([3]; time row 72–96 h): 43.7953 ± 19.5441%
detection in SD rat brains [4]: not detected
benzoic acid production in the liver microsome system [5]: no benzoic acid produced
cumulative excretion rate in bile for 60 h [6]: 0.02%
